Test results published in ChEMBL document CHEMBL3272271, “Folate antagonists. 13. 2,4-Diamino-6-](alpha,alpha,alpha-trifluoro-m-tolyl)thio]quinazoline and related 2,4-diamino-6-[(phenyl- and naphthyl)thio]quinazolines, a unique class of antimetabolites with extraordinary antimalarial and antibacterial effects” (J Med Chem, 1978).
In brackets after ≈: the same amount, converted by molar mass. Activity calls are given as the source filed them. No cut-off for these calls is given here.

Tests used:
[1] = test system: Shigella sonnei; test: Antibacterial activity against Shigella sonnei C-10 by gradient plate test; format: functional
[2] = test system: Plasmodium gallinaceum; test: Antimalarial activity against sporozoite-induced Plasmodium gallinaceum infected in white leghorn chicken assessed as disease cure from parasite infection at 30 mg/kg, sc administered 72 hrs after infection; format: functional, organism-based; design: dose 30 mg/kg
[3] = test system: Plasmodium berghei; test: Antimalarial activity against chloroquine-resistant Plasmodium berghei assessed as drug resistance; format: functional, organism-based
[4] = test system: Plasmodium gallinaceum; test: Antimalarial activity against trophozoite-induced Plasmodium gallinaceum infected in white leghorn chicken assessed as increase in mean survival days of host at 2.5 mg/kg, sc administered 72 hrs after infection relative to control; format: functional; conditions: route subcutaneous
[5] = test system: Pseudomonas aeruginosa; test: Antibacterial activity against Pseudomonas aeruginosa 28 by gradient plate test; format: functional
[6] = test system: Plasmodium gallinaceum; test: Antimalarial activity against sporozoite-induced Plasmodium gallinaceum infected in white leghorn chicken assessed as disease cure from parasite infection at 480 mg/kg, sc administered 72 hrs after infection; format: functional, organism-based; design: dose 480 mg/kg
[7] = test system: Plasmodium gallinaceum; test: Antimalarial activity against sporozoite-induced Plasmodium gallinaceum infected in white leghorn chicken assessed as disease cure from parasite infection at 15 mg/kg, sc administered 72 hrs after infection; format: functional, organism-based; design: dose 15 mg/kg
[8] = test system: Plasmodium gallinaceum; test: Antimalarial activity against trophozoite-induced Plasmodium gallinaceum infected in white leghorn chicken assessed as increase in mean survival days of host at 0.63 mg/kg, sc administered 72 hrs after infection relative to control; format: functional; conditions: route subcutaneous
[9] = test system: Plasmodium berghei; test: Antimalarial activity against Plasmodium berghei infected in mouse assessed as increase in mean survival days of host at 2.5 mg/kg, sc administered 72 hrs after infection relative to control; format: functional; conditions: route subcutaneous
[10] = test system: Plasmodium gallinaceum; test: Antimalarial activity against trophozoite-induced Plasmodium gallinaceum infected in white leghorn chicken assessed as increase in mean survival days of host at 1.25 mg/kg, sc administered 72 hrs after infection relative to control; format: functional; conditions: route subcutaneous
[11] = test system: Plasmodium gallinaceum; test: Antimalarial activity against trophozoite-induced Plasmodium gallinaceum infected in white leghorn chicken assessed as disease cure from parasite infection at 10 mg/kg, sc administered 72 hrs after infection; format: functional, organism-based; design: dose 10 mg/kg
[12] = test system: Plasmodium falciparum; test: Antimalarial activity against pyrimethamine-sensitive Plasmodium falciparum Vietnam Oak Knoll infected in Aotus trivirgatus owl monkey model assessed as cure from parasite infection at 0.6 mg/kg, po qd for 7 days relative to control; format: functional
[13] = test system: Plasmodium gallinaceum; test: Antimalarial activity against sporozoite-induced Plasmodium gallinaceum infected in white leghorn chicken assessed as disease cure from parasite infection at 60 mg/kg, sc administered 72 hrs after infection; format: functional, organism-based; design: dose 60 mg/kg
[14] = test system: Enterococcus faecalis; test: Antibacterial activity against Streptococcus faecalis MGH-2 by gradient plate test; format: functional
[15] = test system: Plasmodium berghei; test: Antimalarial activity against Plasmodium berghei infected in mouse assessed as disease cure from parasite infection at 80 mg/kg, sc administered 72 hrs after infection; format: functional, organism-based; design: dose 80 mg/kg
[16] = test system: Plasmodium gallinaceum; test: Antimalarial activity against trophozoite-induced Plasmodium gallinaceum infected in white leghorn chicken assessed as disease cure from parasite infection at 20 mg/kg, sc administered 72 hrs after infection; format: functional, organism-based; design: dose 20 mg/kg
[17] = test system: Plasmodium berghei; test: Antimalarial activity against Plasmodium berghei infected in mouse assessed as disease cure from parasite infection at 640 mg/kg, sc administered 72 hrs after infection; format: functional, organism-based; design: dose 640 mg/kg
[18] = test system: Plasmodium berghei; test: Antimalarial activity against Plasmodium berghei infected in mouse assessed as disease cure from parasite infection at 40 mg/kg, sc administered 72 hrs after infection; format: functional, organism-based; design: dose 40 mg/kg
[19] = test system: Plasmodium berghei; test: Antimalarial activity against Plasmodium berghei infected in mouse assessed as increase in mean survival days of host at 1.25 mg/kg, sc administered 72 hrs after infection relative to control; format: functional; conditions: route subcutaneous
[20] = test system: Plasmodium berghei; test: Antimalarial activity against Plasmodium berghei infected in mouse assessed as increase in mean survival days of host at 5 mg/kg, sc administered 72 hrs after infection relative to control; format: functional; conditions: route subcutaneous
[21] = test system: Plasmodium berghei; test: Antimalarial activity against cycloguanil-resistant Plasmodium berghei assessed as drug resistance; format: functional, organism-based
[22] = test system: Plasmodium berghei; test: Antimalarial activity against Plasmodium berghei infected in mouse assessed as disease cure from parasite infection at 20 mg/kg, sc administered 72 hrs after infection; format: functional, organism-based; design: dose 20 mg/kg
[23] = test system: Plasmodium gallinaceum; test: Antimalarial activity against sporozoite-induced Plasmodium gallinaceum infected in white leghorn chicken assessed as disease cure from parasite infection at 240 mg/kg, sc administered 72 hrs after infection; format: functional, organism-based; design: dose 240 mg/kg
[24] = test system: Plasmodium falciparum; test: Antimalarial activity against pyrimethamine-sensitive Plasmodium falciparum Vietnam Oak Knoll infected in Aotus trivirgatus owl monkey model assessed as cure from parasite infection at 0.098 to 1.56 mg/kg, po qd for 7 days relative to control; format: functional; conditions: dose mg/kg 0.098-1.56
[25] = test system: Plasmodium gallinaceum; test: Antimalarial activity against trophozoite-induced Plasmodium gallinaceum infected in white leghorn chicken assessed as increase in mean survival days of host at 5 mg/kg, sc administered 72 hrs after infection relative to control; format: functional; conditions: route subcutaneous
[26] = test system: Plasmodium falciparum; test: Antimalarial activity against chloroquine-susceptible, pyrimethamine-resistant Plasmodium falciparum Malayan Camp infected in Aotus trivirgatus owl monkey model assessed as cure from parasite infection at >2.5 mg/kg, po qd for 7 days relative to control; format: functional
[27] = test system: Escherichia coli; test: Antibacterial activity against Escherichia coli Vogel by gradient plate test; format: functional
[28] = test system: Staphylococcus aureus; test: Antibacterial activity against drug-resistant Staphylococcus aureus S18713 by gradient plate test; format: functional
[29] = test system: Plasmodium gallinaceum; test: Antimalarial activity against sporozoite-induced Plasmodium gallinaceum infected in white leghorn chicken assessed as disease cure from parasite infection at 120 mg/kg, sc administered 72 hrs after infection; format: functional, organism-based; design: dose 120 mg/kg
[30] = test system: Plasmodium berghei; test: Antimalarial activity against Plasmodium berghei infected in mouse assessed as increase in mean survival days of host at 10 mg/kg, sc administered 72 hrs after infection relative to control; format: functional; conditions: route subcutaneous
[31] = test system: Plasmodium berghei; test: Antimalarial activity against Plasmodium berghei infected in mouse assessed as disease cure from parasite infection at 160 mg/kg, sc administered 72 hrs after infection; format: functional, organism-based; design: dose 160 mg/kg
[32] = test system: Staphylococcus aureus; test: Antibacterial activity against Staphylococcus aureus UC-96 by gradient plate test; format: functional
[33] = test system: Plasmodium falciparum; test: Antimalarial activity against chloroquine-susceptible, pyrimethamine-resistant Plasmodium falciparum Malayan Camp infected in Aotus trivirgatus owl monkey model assessed as cure from parasite infection at 0.39 to 5 mg/kg, po qd for 7 days relative to control; format: functional; conditions: dose mg/kg 0.39-5
[34] = test system: Plasmodium berghei; test: Antimalarial activity against Plasmodium berghei infected in mouse assessed as disease cure from parasite infection at 320 mg/kg, sc administered 72 hrs after infection; format: functional, organism-based; design: dose 320 mg/kg
[35] = test system: Plasmodium gallinaceum; test: Antimalarial activity against sporozoite-induced Plasmodium gallinaceum infected in white leghorn chicken assessed as disease cure from parasite infection at 320 mg/kg, sc administered 72 hrs after infection; format: functional, organism-based; design: dose 320 mg/kg
[36] = test system: Plasmodium gallinaceum; test: Antimalarial activity against trophozoite-induced Plasmodium gallinaceum infected in white leghorn chicken assessed as disease cure from parasite infection at 160 mg/kg, sc administered 72 hrs after infection; format: functional, organism-based; design: dose 160 mg/kg
[37] = test system: Plasmodium gallinaceum; test: Antimalarial activity against trophozoite-induced Plasmodium gallinaceum infected in white leghorn chicken assessed as disease cure from parasite infection at 80 mg/kg, sc administered 72 hrs after infection; format: functional, organism-based; design: dose 80 mg/kg
[38] = test system: Plasmodium gallinaceum; test: Antimalarial activity against trophozoite-induced Plasmodium gallinaceum infected in white leghorn chicken assessed as increase in mean survival days of host at 80 mg/kg, sc administered 72 hrs after infection relative to control; format: functional; conditions: route subcutaneous
[39] = test system: Plasmodium gallinaceum; test: Antimalarial activity against sporozoite-induced Plasmodium gallinaceum infected in white leghorn chicken assessed as increase in mean survival days of host at 15 mg/kg, sc administered 72 hrs after infection relative to control; format: functional; conditions: route subcutaneous
[40] = test system: Plasmodium gallinaceum; test: Antimalarial activity against sporozoite-induced Plasmodium gallinaceum infected in white leghorn chicken assessed as disease cure from parasite infection at 160 mg/kg, sc administered 72 hrs after infection; format: functional, organism-based; design: dose 160 mg/kg
[41] = test system: Plasmodium gallinaceum; test: Antimalarial activity against trophozoite-induced Plasmodium gallinaceum infected in white leghorn chicken assessed as increase in mean survival days of host at 320 mg/kg, sc administered 72 hrs after infection relative to control; format: functional; conditions: route subcutaneous
[42] = test system: Plasmodium gallinaceum; test: Antimalarial activity against sporozoite-induced Plasmodium gallinaceum infected in white leghorn chicken assessed as increase in mean survival days of host at 30 mg/kg, sc administered 72 hrs after infection relative to control; format: functional; conditions: route subcutaneous
[43] = test system: Plasmodium berghei; test: Antimalarial activity against Plasmodium berghei infected in mouse assessed as increase in mean survival days of host at 20 mg/kg, sc administered 72 hrs after infection relative to control; format: functional; conditions: route subcutaneous
[44] = test system: Gallus gallus; test: Toxicity in sporozoite-induced Plasmodium gallinaceum infected white leghorn chicken assessed as mortality at 480 mg/kg, sc administered 72 hrs after infection measured up to 6 days; format: organism-based; design: dose 480 mg/kg, route subcutaneous; conditions: in vivo
[45] = test system: Plasmodium gallinaceum; test: Antimalarial activity against trophozoite-induced Plasmodium gallinaceum infected in white leghorn chicken assessed as increase in mean survival days of host at 120 mg/kg, sc administered 72 hrs after infection relative to control; format: functional; conditions: route subcutaneous
[46] = test system: Plasmodium gallinaceum; test: Antimalarial activity against trophozoite-induced Plasmodium gallinaceum infected in white leghorn chicken assessed as disease cure from parasite infection at 320 mg/kg, sc administered 72 hrs after infection; format: functional, organism-based; design: dose 320 mg/kg
[47] = test system: Plasmodium berghei; test: Antimalarial activity against trophozoite-induced Plasmodium berghei infected in mouse assessed as daily dose required to suppression of 90% parasite infection administered with diet for 6 days; format: functional
[48] = test system: Plasmodium berghei; test: Ratio of quinine hydrochloride SD90 to compound SD90 for trophozoite-induced Plasmodium berghei infected in mouse assessed as daily dose required to suppression of 90% parasite infection administered with diet for 6 days; format: functional
[49] = test system: Plasmodium gallinaceum; test: Antimalarial activity against sporozoite-induced Plasmodium gallinaceum infected in white leghorn chicken assessed as disease cure from parasite infection at 80 mg/kg, sc administered 72 hrs after infection; format: functional, organism-based; design: dose 80 mg/kg

## CN(C)c1ccc(Sc2ccc3nc(N)nc(N)c3c2)cc1
[1]
  MIC: 10 µg/mL (≈ 32.1 µM)
[2]
  Activity: Active
[3]
  Activity: inactive
[4]
  MST: 12.6 days
[5]
  MIC: > 25 µg/mL
[6]
  Activity: Active
[7]
  Activity: Active
[8]
  MST: 6.6 days
[9]
  MST: 5.5 days
[10]
  MST: 10.4 days
[11]
  Activity: Active
[12]
  Activity: >50%
[13]
  Activity: Active
[14]
  MIC: < 0.25 µg/mL
[15]
  Activity: Active
[16]
  Activity: Active
[17]
  Activity: Active
[18]
  Activity: Active
[19]
  MST: 2.5 days
[20]
  MST: 9.7 days
[21]
  Activity: Active
[22]
  Activity: Active
[23]
  Activity: Active
[24]
  Activity: >50%
[25]
  MST: 19.8 days
[26]
  Activity: >50%
[27]
  MIC: 1.5 µg/mL (≈ 4.82 µM)
[28]
  MIC: < 0.25 µg/mL
[29]
  Activity: Active
[30]
  MST: 10.3 days
[31]
  Activity: Active
[32]
  MIC: < 0.25 µg/mL
[33]
  Activity: >50%
[34]
  Activity: Active

## CC(=O)O.Nc1nc(N)c2cc(N(Cc3ccc(Cl)c(Cl)c3)N=O)ccc2n1
[2]
  Activity: Active
[6]
  Activity: Active
[35]
  Activity: Active
[7]
  Activity: Active
[36]
  Activity: Active
[37]
  Activity: Active
[38]
  MST: 16.9 days
[39]
  MST: 0 days
[40]
  Activity: Active
[13]
  Activity: Active
[15]
  Activity: Active
[41]
  MST: 16.9 days
[42]
  MST: 0 days
[43]
  MST: 22.4 days
[44]
  Activity: Toxic
[45]
  MST: 16.9 days
[46]
  Activity: Active
[22]
  Activity: Active
[47]
  SD90: 0.27 mg/kg/day
[23]
  Activity: Active
[48]
  Ratio: 270
[29]
  Activity: Active
[49]
  Activity: Active
[31]
  Activity: Active
[34]
  Activity: Active
